Counter-ions that a name gives are not always drawn.
Experiment: In vitro inhibition of human platelet aggregation in suspension

SMILES	IC50 [nM]
O=C(O)CCNC(=O)CCC(=O)Nc1ccc2c(c1)CNC2 [3-[3-(2,3-Dihydro-1H-isoindol-5-ylcarbamoyl)-propionylamino]-propionic acid; hydrochloride]	2090
O=C(O)CC(NC(=O)CCC(=O)Nc1ccc2c(c1)CNC2)c1ccccc1 (configuration not stated) [3-[3-(2,3-Dihydro-1H-isoindol-5-ylcarbamoyl)-propionylamino]-3-phenyl-propionic acid; hydrochloride]	270
